Legend:
[1] = tested on: HCV replicon I389luc-ubi-neo/NS3-3′/ET in ET (Huh-lucubineo-ET) cells; experiment: Replicon assay (Biological Example 2), luciferase readout; format: cell-based; conditions: Hepatitis C virus
Experimental: A cell line, ET (Huh-lucubineo-ET) was used for screening of compounds for inhibiting HCV RNA dependent RNA polymerase. The ET cell line was stably transfected with RNA transcripts harboring a I389luc-ubi-neo/NS3-3′/ET; replicon with firefly luciferase-ubiquitin-neomycin phosphotransferase fusion protein and EMCV-IRES driven NS3-5B polyprotein containing the cell culture adaptive mutations (E1202G; T12801; K1846T) (Krieger at al, 2001 and unpublished). The ET cells were grown in DMEM (Dulbeco's Modified Eagle's Medium), supplemented with 10% fetal calf serum, 2 mM Glutamine, Penicillin (100 IU/mL)/Streptomycin (100 μg/mL), 1× nonessential amino acids, and 250 μg/mL G418 (“Geneticin”). Reagents were all available through Life Technologies (Bethesda, Md.). The cells were plated at 0.5-1.0×10^4 cells/well in the 96 well plates and incubated for 24 hrs before adding test compound. The compounds were added to the cells to achieve a final concentration of 0.1 nM to 50 μM and a final DMSO (dimethylsulfoxide) concentration of 0.5%. Luciferase activity was measured 48 hours later by adding a lysis buffer and the substrate (Catalog number Glo-lysis buffer E2661 and Bright-Glo luciferase system E2620 Promega, Madison, Wis.). Cells should not be too confluent during the assay. Percent inhibition of replication data was plotted relative to no compound control. To determine the EC50 (effective concentration at which 50% of the maximum inhibition was observed), a 10 point, 3-fold serial dilution for each compound was used, which spans a concentration range of […]. EC50 values were calculated by fitting % inhibition at each concentration to the following equation: % inhibition=100%/[(EC50/[I])^b+1] where b was Hill's coefficient.
In other aspects the EC50 was equal to or less than 10 μM. In still other aspects the EC50 was equal to or less than 1 μM.

[2] = biological target: T1, HCV polymerase (Hepatitis C virus genotype 1b, UniProt Q9WMX2); experiment: Polymerase assay of Biological Example 1 (IC50 values of Table 3); format: biochemical; conditions: IC50 values of Table 3, polymerase assay of Biological Example 1; read-out: NS5B-enzyme3
T1 construct: (His)6 (C); made in house; host or cells: XL-1 cells (E. coli, by own knowledge)
Text: A number of assays have been published to assess these activities. A general method that assesses the gross increase of HCV virus in culture was disclosed in U.S. Pat. No. 5,738,985 to Miles et al. In vitro assays have been reported in Ferrari et al. Jnl. of Vir., 73:1649-1654, 1999; Ishii et al., Hepatology, 29:1227-1235, 1999; Lohmann et al., Jnl of Bio. Chem., 274:10807-10815, 1999; and Yamashita et al., Jnl. of Bio. Chem., 273:15479-15486, 1998.
WO 97/12033, filed on Sep. 27, 1996, by Emory University, listing C. Hagedorn and A. Reinoldus as inventors, which claims priority to U.S. Provisional Patent Application Ser. No. 60/004,383, filed on September 1995, described an HCV polymerase assay that can be used to evaluate the activity of the of the compounds described herein. Another HCV polymerase assay has been reported by Bartholomeusz, et al., Hepatitis C Virus (HCV) RNA polymerase assay using cloned HCV non-structural proteins; Antiviral Therapy 1996:1 (Supp 4) 18-24.

[3] = ET cells, luciferase activity 48 hours after compound

Compound	IC50 [1, 3]	IC50 [2]	IC50 ([1]; between 100 nM and 5.0 uM)
Cc1ccc(-c2cc(N3C(=O)C(C)(O)CCC3C3CCCCC3)c(C(=O)O)s2)cc1 (centres unmarked) [Compound 5, 3-(6-Cyclohexyl-3-hydroxy-3-methyl-2-oxo-piperidin-1-yl)-5-p-tolyl-thiophene-2-carboxylic acid]	≤ 100 nM	52 nM	–
CC(C)(C)C#Cc1cc(N2C(=O)[C@](C)(CCCO)OC[C@H]2C2CCCCC2)c(C(=O)O)s1 [Compound 7, 3-[(2S,5R)-5-Cyclohexyl-2-(3-hydroxy-propyl)-2-methyl-3-oxo-morpholin-4-yl]-5-(3,3-dimethyl-but-1-ynyl)-thiophene-2-carboxylic acid]	≤ 100 nM	6 nM	–
CC(C)(C)C#Cc1cc(N2C(=O)[C@@H](CCO)OC[C@H]2C2CCCCC2)c(C(=O)O)s1 [Compound 8, 3-[(2R,5R)-5-Cyclohexyl-2-(2-hydroxy-ethyl)-3-oxo-morpholin-4-yl]-5-(3,3-dimethyl-but-1-ynyl)-thiophene-2-carboxylic acid]	≤ 100 nM	1 nM	–
O=C1CC(=O)N(c2cc(-c3ccccc3)sc2C(=O)O)C(C2CCCCC2)C1 (centres unmarked) [Compound 9, 3-(2-Cyclohexyl-4,6-dioxo-piperidin-1-yl)-5-phenyl-thiophene-2-carboxylic acid]	≥ 5000 nM	80 nM	–
CC(C)(C)C#Cc1cc(N2C(=O)[C@@H](CC(O)CO)OC[C@H]2C2CCCCC2)c(C(=O)O)s1 (stereo partly drawn) [Compound 10, 3-[(2R,5R)-5-Cyclohexyl-2-(2,3-dihydroxy-propyl)-3-oxo-morpholin-4-yl]-5-(3,3-dimethyl-but-1-ynyl)-thiophene-2-carboxylic acid]	≤ 100 nM	3 nM	–
CC(C)(C)C#Cc1cc(N2C(=O)C(O)(CCCO)CCC2C2CCCCC2)c(C(=O)O)s1 (centres unmarked) [Compound 11, 3-[6-Cyclohexyl-3-hydroxy-3-(3-hydroxy-propyl)-2-oxo-piperidin-1-yl]-5-(3,3-dimethyl-but-1-ynyl)-thiophene-2-carboxylic acid]	≤ 100 nM	8 nM	–
O=C(O)c1sc(-c2ccccc2)cc1N1C(=O)CC(O)CC1C1CCCCC1 (centres unmarked) [Compound 12]	–	45 nM	100 to 5000 nM
O=C(O)c1sc(-c2ccccc2)cc1N1C(=O)COCC1C1CCCCC1 (centres unmarked) [Compound 13, 3-(3-Cyclohexyl-5-oxo-morphoIin-4-yl)-5-phenyl-thiophene-2-carboxylic acid]	–	79 nM	100 to 5000 nM
O=C(O)c1sc(-c2ccccc2)cc1N1C(=O)CNC[C@H]1C1CCCCC1 [Compound 15, 3-((R)-2-Cyclohexyl-6-oxo-piperazin-1-yl)-5-phenyl-thiophene-2-carboxylic acid]	≥ 5000 nM	73.5 nM	–
O=C(O)c1sc(-c2ccccc2)cc1N1C(=O)CN(C(=O)c2ccccc2)C[C@H]1C1CCCCC1 [Compound 16, 3-((R)-4-Benzoyl-2-cyclohexyl-6-oxo-piperazin-1-yl)-5-phenyl-thiophene-2-carboxylic acid]	≥ 5000 nM	420 nM	–
O=C(O)c1sc(-c2ccccc2)cc1N1C(=O)CN(Cc2ccccc2)C[C@H]1C1CCCCC1 [Compound 17, 3-((R)-4-Benzyl-2-cyclohexyl-6-oxo-piperazin-1-yl)-5-phenyl-thiophene-2-carboxylic acid]	–	24 nM	100 to 5000 nM
Cc1ccc(S(=O)(=O)N2CC(=O)N(c3cc(-c4ccccc4)sc3C(=O)O)[C@H](C3CCCCC3)C2)cc1 [Compound 18, 3-[(R)-2-Cyclohexyl-6-oxo-4-(toluene-4-sulfonyl)-piperazin-1-yl]-5-phenyl-thiophene-2-carboxylic acid]	–	2 nM	100 to 5000 nM
CC(C)(C)C#Cc1cc(N2C(=O)CCCC2C2CCCCC2)c(C(=O)O)s1 (centres unmarked) [Compound 19, 3-(2-Cyclohexyl-6-oxo-piperidin-1-yl)-5-(3,3-dimethyl-but-1-ynyl)-thiophene-2-carboxylic acid]	≤ 100 nM	15 nM	–
O=C(Cc1ccccc1)NC1CC(=O)N(c2cc(-c3ccccc3)sc2C(=O)O)C(C2CCCCC2)C1 (centres unmarked) [Compound 20, 3-(2-Cyclohexyl-6-oxo-4-phenylacetylamino-piperidin-1-yl)-5-phenyl-thiophene-2-carboxylic acid]	≥ 5000 nM	128 nM	–
O=C(COc1ccccc1)N[C@@H]1CC(=O)N(c2cc(-c3ccccc3)sc2C(=O)O)[C@@H](C2CCCCC2)C1 [Compound 22, 3-[(2R,4S)-2-Cyclohexyl-6-oxo-4-(2-phenoxy-acetylamino)-piperidin-1-yl]-5-phenyl-thiophene-2-carboxylic acid]	≥ 5000 nM	20 nM	–
N[C@H]1CC(=O)N(c2cc(-c3ccccc3)sc2C(=O)O)[C@@H](C2CCCCC2)C1 [Compound 23, 3-((2R,4R)-4-Amino-2-cyclohexyl-6-oxo-piperidin-1-yl)-5-phenyl-thiophene-2-carboxylic acid]	≥ 5000 nM	245 nM	–
O=C(N[C@H]1CC(=O)N(c2cc(-c3ccccc3)sc2C(=O)O)[C@H](C2CCCCC2)C1)c1ccccc1 [Compound 24, 3-((2S,4R)-4-Benzoylamino-2-cyclohexyl-6-oxo-piperidin-1-yl)-5-phenyl-thiophene-2-carboxylic acid]	–	44.5 nM	100 to 5000 nM
O=C(N[C@H]1CC(=O)N(c2cc(-c3ccccc3)sc2C(=O)O)[C@@H](C2CCCCC2)C1)c1ccccc1 [Compound 25, 3-((2R,4R)-4-Benzoylamino-2-cyclohexyl-6-oxo-piperidin-1-yl)-5-phenyl-thiophene-2-carboxylic acid]	≥ 5000 nM	173 nM	–
CS(=O)(=O)N1CC(=O)N(c2cc(-c3ccccc3)sc2C(=O)O)C(C2CCCCC2)C1 (centres unmarked) [Compound 26, 3-(2-Cyclohexyl-4-methanesulfonyl-6-oxo-piperazin-1-yl)-5-phenyl-thiophene-2-carboxylic acid]	–	67 nM	100 to 5000 nM
O=C(O)c1sc(-c2ccccc2)cc1N1C(=O)CN(S(=O)(=O)Cc2ccccc2)CC1C1CCCCC1 (centres unmarked) [Compound 27, 3-(2-Cyclohexyl-6-oxo-4-phenylmethanesulfonyl-piperazin-1-yl)-5-phenyl-thiophene-2-carboxylic acid]	–	22 nM	100 to 5000 nM
N[C@H]1CC(=O)N(c2cc(-c3ccccc3)sc2C(=O)O)[C@H](C2CCCCC2)C1 [Compound 28, 3-((2S,4R)-4-Amino-2-cyclohexyl-6-oxo-piperidin-1-yl)-5-phenyl-thiophene-2-carboxylic acid]	≥ 5000 nM	226 nM	–
COc1ccc(S(=O)(=O)N2CC(=O)N(c3cc(-c4ccccc4)sc3C(=O)O)C(C3CCCCC3)C2)cc1C(=O)O (centres unmarked) [Compound 29, 3-[4-(3-Carboxy-4-methoxy-benzenesulfonyl)-2-cyclohexyl-6-oxo-piperazin-1-yl]-5-phenyl-thiophene-2-carboxylic acid]	–	1 nM	100 to 5000 nM
O=C(O)c1ccc(S(=O)(=O)N2CC(=O)N(c3cc(-c4ccccc4)sc3C(=O)O)C(C3CCCCC3)C2)cc1 (centres unmarked) [Compound 30, 3-[4-(4-Carboxy-benzenesulfonyl)-2-cyclohexyl-6-oxo-piperazin-1-yl]-5-phenyl-thiophene-2-carboxylic acid]	≥ 5000 nM	3 nM	–
CCCCCS(=O)(=O)N1CC(=O)N(c2cc(-c3ccccc3)sc2C(=O)O)C(C2CCCCC2)C1 (centres unmarked) [Compound 31, 3-[2-Cyclohexyl-6-oxo-4-(pentane-1-sulfonyl)-piperazin-1-yl]-5-phenyl-thiophene-2-carboxylic acid]	–	47 nM	100 to 5000 nM
Cc1noc(C)c1S(=O)(=O)N1CC(=O)N(c2cc(-c3ccccc3)sc2C(=O)O)C(C2CCCCC2)C1 (centres unmarked) [Compound 32, 3-[2-Cyclohexyl-4-(3,5-dimethyl-isoxazole-4-sulfonyl)-6-oxo-piperazin-1-yl]-5-phenyl-thiophene-2-carboxylic acid]	≥ 5000 nM	241 nM	–

Reference: patent US9498483B2, “2,3,5-trisubstituted thiophene compounds and uses thereof” (priority 2010, dated 2016)
